# Laboratory results taken from BigSolDB 2.1.
smiles,measurement,setting,value
O=C1c2ccccc2-c2ccccc21,solubility (mole fraction),"in DMSO, 278.15 K",0.0418
same,solubility (mole fraction),"in DMSO, 283.15 K",0.0609
same,solubility (mole fraction),"in DMSO, 288.15 K",0.0728
same,solubility (mole fraction),"in DMSO, 293.15 K",0.0855
same,solubility (mole fraction),"in DMSO, 298.15 K",0.112
same,solubility (mole fraction),"in DMSO, 303.15 K",0.142
same,solubility (mole fraction),"in DMSO, 308.15 K",0.178
same,solubility (mole fraction),"in DMSO, 313.15 K",0.216
same,solubility (mole fraction),"in DMSO, 318.15 K",0.306
same,solubility (mole fraction),"in acetonitrile, 278.15 K",0.0209
same,solubility (mole fraction),"in acetonitrile, 283.15 K",0.0311
same,solubility (mole fraction),"in acetonitrile, 288.15 K",0.0481
same,solubility (mole fraction),"in acetonitrile, 293.15 K",0.0657
same,solubility (mole fraction),"in acetonitrile, 298.15 K",0.102
same,solubility (mole fraction),"in acetonitrile, 303.15 K",0.134
same,solubility (mole fraction),"in acetonitrile, 308.15 K",0.201
same,solubility (mole fraction),"in acetonitrile, 313.15 K",0.281
same,solubility (mole fraction),"in acetonitrile, 318.15 K",0.358
same,solubility (mole fraction),"in ethanol, 278.15 K",0.0127
same,solubility (mole fraction),"in ethanol, 283.15 K",0.014
same,solubility (mole fraction),"in ethanol, 288.15 K",0.0164
same,solubility (mole fraction),"in ethanol, 293.15 K",0.0222
same,solubility (mole fraction),"in ethanol, 298.15 K",0.0267
same,solubility (mole fraction),"in ethanol, 303.15 K",0.0307
same,solubility (mole fraction),"in ethanol, 308.15 K",0.0428
same,solubility (mole fraction),"in ethanol, 313.15 K",0.0506
same,solubility (mole fraction),"in ethanol, 318.15 K",0.0693
same,solubility (mole fraction),"in ethyl acetate, 278.15 K",0.105
same,solubility (mole fraction),"in ethyl acetate, 283.15 K",0.137
same,solubility (mole fraction),"in ethyl acetate, 288.15 K",0.142
same,solubility (mole fraction),"in ethyl acetate, 293.15 K",0.172
same,solubility (mole fraction),"in ethyl acetate, 298.15 K",0.225
same,solubility (mole fraction),"in ethyl acetate, 303.15 K",0.243
same,solubility (mole fraction),"in ethyl acetate, 308.15 K",0.284
same,solubility (mole fraction),"in ethyl acetate, 313.15 K",0.35
same,solubility (mole fraction),"in ethyl acetate, 318.15 K",0.371
same,solubility (mole fraction),"in ethyl formate, 278.15 K",0.0907
same,solubility (mole fraction),"in ethyl formate, 283.15 K",0.111
same,solubility (mole fraction),"in ethyl formate, 288.15 K",0.14
same,solubility (mole fraction),"in ethyl formate, 293.15 K",0.163
same,solubility (mole fraction),"in ethyl formate, 298.15 K",0.22
same,solubility (mole fraction),"in ethyl formate, 303.15 K",0.25
same,solubility (mole fraction),"in ethyl formate, 308.15 K",0.32
same,solubility (mole fraction),"in ethyl formate, 313.15 K",0.366
same,solubility (mole fraction),"in ethyl formate, 318.15 K",0.409
same,solubility (mole fraction),"in isobutanol, 278.15 K",0.0156
same,solubility (mole fraction),"in isobutanol, 283.15 K",0.0207
same,solubility (mole fraction),"in isobutanol, 288.15 K",0.0241
same,solubility (mole fraction),"in isobutanol, 293.15 K",0.0305
same,solubility (mole fraction),"in isobutanol, 298.15 K",0.0387
same,solubility (mole fraction),"in isobutanol, 303.15 K",0.0504
same,solubility (mole fraction),"in isobutanol, 308.15 K",0.0622
same,solubility (mole fraction),"in isobutanol, 313.15 K",0.0745
same,solubility (mole fraction),"in isobutanol, 318.15 K",0.0963
same,solubility (mole fraction),"in isopropanol, 278.15 K",0.0087
same,solubility (mole fraction),"in isopropanol, 283.15 K",0.0119
same,solubility (mole fraction),"in isopropanol, 288.15 K",0.0152
same,solubility (mole fraction),"in isopropanol, 293.15 K",0.0217
same,solubility (mole fraction),"in isopropanol, 298.15 K",0.0273
same,solubility (mole fraction),"in isopropanol, 303.15 K",0.0384
same,solubility (mole fraction),"in isopropanol, 308.15 K",0.0472
same,solubility (mole fraction),"in isopropanol, 313.15 K",0.0592
same,solubility (mole fraction),"in isopropanol, 318.15 K",0.0801
same,solubility (mole fraction),"in methanol, 278.15 K",0.0037
same,solubility (mole fraction),"in methanol, 283.15 K",0.0044
same,solubility (mole fraction),"in methanol, 288.15 K",0.0059
same,solubility (mole fraction),"in methanol, 293.15 K",0.0084
same,solubility (mole fraction),"in methanol, 298.15 K",0.012
same,solubility (mole fraction),"in methanol, 303.15 K",0.0154
same,solubility (mole fraction),"in methanol, 308.15 K",0.0199
same,solubility (mole fraction),"in methanol, 313.15 K",0.0288
same,solubility (mole fraction),"in methanol, 318.15 K",0.0401
same,solubility (mole fraction),"in n-butanol, 278.15 K",0.0119
same,solubility (mole fraction),"in n-butanol, 283.15 K",0.0142
same,solubility (mole fraction),"in n-butanol, 288.15 K",0.0182
same,solubility (mole fraction),"in n-butanol, 293.15 K",0.0286
same,solubility (mole fraction),"in n-butanol, 298.15 K",0.0371
same,solubility (mole fraction),"in n-butanol, 303.15 K",0.0461
same,solubility (mole fraction),"in n-butanol, 308.15 K",0.0631
same,solubility (mole fraction),"in n-butanol, 313.15 K",0.0826
same,solubility (mole fraction),"in n-butanol, 318.15 K",0.113
same,solubility (mole fraction),"in n-hexane, 278.15 K",0.0038
same,solubility (mole fraction),"in n-hexane, 283.15 K",0.0047
same,solubility (mole fraction),"in n-hexane, 288.15 K",0.0054
same,solubility (mole fraction),"in n-hexane, 293.15 K",0.007
same,solubility (mole fraction),"in n-hexane, 298.15 K",0.0097
same,solubility (mole fraction),"in n-hexane, 303.15 K",0.0132
same,solubility (mole fraction),"in n-hexane, 308.15 K",0.0169
same,solubility (mole fraction),"in n-hexane, 313.15 K",0.0227
same,solubility (mole fraction),"in n-hexane, 318.15 K",0.0304
same,solubility (mole fraction),"in n-propanol, 278.15 K",0.0143
same,solubility (mole fraction),"in n-propanol, 283.15 K",0.0169
same,solubility (mole fraction),"in n-propanol, 288.15 K",0.0214
same,solubility (mole fraction),"in n-propanol, 293.15 K",0.0294
same,solubility (mole fraction),"in n-propanol, 298.15 K",0.0381
same,solubility (mole fraction),"in n-propanol, 303.15 K",0.0482
same,solubility (mole fraction),"in n-propanol, 308.15 K",0.0653
same,solubility (mole fraction),"in n-propanol, 313.15 K",0.083
same,solubility (mole fraction),"in n-propanol, 318.15 K",0.0997
